Earlier results on one molecule are cited in patent US9468626B2, “Melatonin-based formulations for parenteral administration” (CHIESI FARMACEUTICI S.p.A., priority 2014, dated 2016).

The conditions of series [1]: in vivo.
The conditions of series [2]: exposed to light or oxygen.
A further series has as its system newborn piglets. Particulars: intravenously, 5 mg/kg/h.

For `COc1ccc2[nH]cc(CCNC(C)=O)c2c1` [melatonin, N-[2-(5-Methoxy-1H-indol-3-yl)ethyl]acetamide], the solubility in water result is “poorly soluble in water”. The oral bioavailability entry in series [1] was “low and very variable”. The “stability in aqueous solution” value in series [2] is given as “not stable when exposed to light or oxygen”. Moreover, in the series on newborn piglets, the hypothermic neuroprotection result is reported as “increases hypothermic neuroprotection”.
